Legend:
[1] = mn = molality of the nth substance listed, in mol/kg; details: 101.3 kPa, Liquid; for speed of sound: Sing-around technique in a fixed-path interferometer; for mass density: Vibrating tube method
[2] = osmotic coefficient (dimensionless); mn = molality of the nth substance listed, in mol/kg; details: 323.15 K, Liquid, Vapor Pressure Osmometer

CCCCn1cc[n+](C)c1.N#CN=C=[N-] [1-butyl-3-methylimidazolium dicyanamide] + CC(C)O
[1]
Details | mass density, 293.15 K [kg/m3] | mass density, 308.15 K [kg/m3] | mass density, 323.15 K [kg/m3] | speed of sound, 293.15 K [m/s] | speed of sound, 308.15 K [m/s] | speed of sound, 323.15 K [m/s]
m1 = 0.0497 | 788.07 | 775.35 | 761.85 | 1163.1 | 1110.6 | 1057.6
m1 = 0.1012 | 790.54 | 777.9 | 764.5 | 1167.4 | 1115.4 | 1062.8
m1 = 0.1541 | 793.01 | 780.44 | 767.13 | 1171.9 | 1120.2 | 1067.8
m1 = 0.2003 | 795.12 | 782.61 | 769.37 | 1175.6 | 1124.1 | 1072
m1 = 0.2521 | 797.4 | 784.94 | 771.79 | 1179.7 | 1128.4 | 1076.6
m1 = 0.5105 | 808.27 | 796.04 | 783.22 | 1199.3 | 1148.9 | 1098.1
m1 = 0.7616 | 817.89 | 805.84 | 793.27 | 1216.7 | 1167 | 1117.1
m1 = 1.016 | 826.92 | 815.02 | 802.67 | 1233.3 | 1184.4 | 1135.3
m1 = 1.264 | 835.03 | 823.26 | 811.1 | 1248.4 | 1200 | 1151.6
m1 = 1.523 | 843.01 | 831.36 | 819.36 | 1263.4 | 1215.6 | 1167.9
m1 = 1.784 | 850.52 | 838.97 | 827.12 | 1278 | 1230.6 | 1183.3
m1 = 2.022 | 856.61 | 845.16 | 833.43 | 1289.6 | 1242.8 | 1196.1
m1 = 2.519 | 868.38 | 857.09 | 845.59 | 1312.7 | 1266.6 | 1220.9
m1 = 3.014 | 878.91 | 867.77 | 856.45 | 1333.7 | 1288.3 | 1243.4
m1 = 3.553 | 889.91 | 878.92 | 867.79 | 1356 | 1311.2 | 1267

[2]
Details | osmotic coefficient
m1 = 0.0572 | 0.973
m1 = 0.0884 | 0.925
m1 = 0.1125 | 0.905
m1 = 0.2169 | 0.838
m1 = 0.3275 | 0.795
m1 = 0.4213 | 0.77
m1 = 0.5065 | 0.757
m1 = 0.8172 | 0.712
m1 = 1.153 | 0.682
m1 = 1.6 | 0.665
m1 = 2.049 | 0.641
m1 = 2.416 | 0.619
m1 = 2.863 | 0.592
m1 = 3.314 | 0.565

CCCCn1cc[n+](C)c1.N#CN=C=[N-] [1-butyl-3-methylimidazolium dicyanamide] + CCC(C)O
[1]
Details | mass density, 293.15 K [kg/m3] | mass density, 308.15 K [kg/m3] | mass density, 323.15 K [kg/m3] | speed of sound, 293.15 K [m/s] | speed of sound, 308.15 K [m/s] | speed of sound, 323.15 K [m/s]
m1 = 0.0516 | 809.04 | 796.59 | 783.23 | 1234.5 | 1180.7 | 1125.7
m1 = 0.1009 | 811.17 | 798.81 | 785.57 | 1238.1 | 1184.9 | 1130.4
m1 = 0.1501 | 813.3 | 801.01 | 787.88 | 1241.8 | 1188.8 | 1134.6
m1 = 0.2081 | 815.7 | 803.5 | 790.47 | 1246 | 1193.3 | 1139.5
m1 = 0.2579 | 817.76 | 805.61 | 792.68 | 1249.3 | 1197.1 | 1143.6
m1 = 0.5079 | 827.23 | 815.35 | 802.8 | 1265.7 | 1214.4 | 1162.3
m1 = 0.7631 | 836.25 | 824.57 | 812.32 | 1281.1 | 1230.8 | 1179.8
m1 = 1.016 | 844.37 | 832.86 | 820.86 | 1295.3 | 1245.9 | 1195.9
m1 = 1.267 | 851.96 | 840.59 | 828.79 | 1308.6 | 1260 | 1210.9
m1 = 1.517 | 858.95 | 847.71 | 836.09 | 1321.1 | 1273 | 1224.8
m1 = 1.782 | 865.94 | 854.81 | 843.35 | 1333.7 | 1286.2 | 1238.7
m1 = 1.95 | 870.16 | 859.09 | 847.71 | 1341.3 | 1294.2 | 1247
m1 = 2.523 | 883.17 | 872.28 | 861.18 | 1365.1 | 1319.1 | 1273.2
m1 = 3.56 | 902.51 | 891.67 | 880.92 | 1401.6 | 1356.4 | 1312.5

[2]
Details | osmotic coefficient
m1 = 0.0525 | 0.893
m1 = 0.0792 | 0.826
m1 = 0.0995 | 0.811
m1 = 0.2159 | 0.76
m1 = 0.3148 | 0.715
m1 = 0.4003 | 0.687
m1 = 0.5143 | 0.653
m1 = 0.8478 | 0.592
m1 = 1.241 | 0.556
m1 = 1.639 | 0.538
m1 = 2.038 | 0.524
m1 = 2.439 | 0.517
m1 = 2.842 | 0.502
m1 = 3.307 | 0.492

CCCCn1cc[n+](C)c1.N#CN=C=[N-] [1-butyl-3-methylimidazolium dicyanamide] + CCCCCO
[1]
Details | mass density, 293.15 K [kg/m3] | mass density, 308.15 K [kg/m3] | mass density, 323.15 K [kg/m3] | speed of sound, 293.15 K [m/s] | speed of sound, 308.15 K [m/s] | speed of sound, 323.15 K [m/s]
m1 = 0.0499 | 816.84 | 805.86 | 794.56 | 1296.1 | 1246.2 | 1196.7
m1 = 0.1005 | 818.99 | 808.05 | 796.79 | 1299.3 | 1249.5 | 1200.3
m1 = 0.1579 | 821.34 | 810.43 | 799.21 | 1302.8 | 1253.2 | 1204.2
m1 = 0.2012 | 823.14 | 812.25 | 801.07 | 1305.5 | 1256 | 1207.2
m1 = 0.2575 | 825.39 | 814.53 | 803.38 | 1308.7 | 1259.4 | 1210.8
m1 = 0.5093 | 834.72 | 823.96 | 812.96 | 1322.3 | 1273.7 | 1225.8
m1 = 0.7636 | 843.46 | 832.73 | 821.84 | 1334.4 | 1286.4 | 1238.6
m1 = 1.022 | 851.58 | 840.96 | 830.18 | 1346.7 | 1299.3 | 1252.8
m1 = 1.271 | 858.96 | 848.35 | 837.65 | 1357 | 1310.2 | 1263.7
m1 = 1.52 | 865.82 | 855.32 | 844.69 | 1367.7 | 1321.4 | 1275.9
m1 = 1.766 | 872.07 | 861.65 | 851.09 | 1377 | 1331.2 | 1286.1
m1 = 1.982 | 877.32 | 866.91 | 856.41 | 1385 | 1339.5 | 1294.8
m1 = 2.527 | 889.3 | 878.99 | 868.61 | 1403.6 | 1358.9 | 1315.1
m1 = 2.998 | 898.47 | 888.26 | 877.98 | 1418.4 | 1374.3 | 1331.1
m1 = 3.512 | 907.39 | 897.32 | 887.14 | 1432.6 | 1389.6 | 1347

[2]
Details | osmotic coefficient
m1 = 0.0625 | 0.784
m1 = 0.0829 | 0.719
m1 = 0.1019 | 0.669
m1 = 0.2131 | 0.627
m1 = 0.3093 | 0.596
m1 = 0.4113 | 0.582
m1 = 0.5349 | 0.566
m1 = 0.8273 | 0.537
m1 = 1.131 | 0.52
m1 = 1.443 | 0.509
m1 = 1.749 | 0.502
m1 = 2.246 | 0.493
m1 = 2.756 | 0.478
m1 = 3.23 | 0.458

From the NIST ThermoML archive (doi:10.1016/j.jct.2012.02.007)
